Values quoted from earlier work as cited in paper PMC9307173, “OX2R-selective orexin agonism is sufficient to ameliorate cataplexy and sleep/wake fragmentation without inducing drug-seeking behavior in mouse model of narcolepsy” (PLoS ONE, 2022).
Entries after “also recorded” stand apart in the source; their conditions may differ.

Columns and labels:
[1] = test system: addiction-like behaviors; details: OX1R-selective antagonist
Text: Orexin also activates the reward system. Orexin neurons in the LH project to the dopaminergic reward system in the ventral tegmental area (VTA), and promote the dopamine release in the nucleus accumbens and the prefrontal cortex, potentially inducing addiction-like behaviors and reinforcing effects. Orexin-mediated neural signaling also contributes to the development of addiction to drugs of abuse such as cocaine, morphine and nicotine. Anatomically, both OX1R and OX2R are present in VTA, with dopaminergic neurons predominantly expressing OX1R ...

[2] = test system: orexin knockout and orexin neuron-ablated mice; parameters: method as in PMID 28507129

Row | SMILES | addiction-like behaviors induced by drugs of abuse or OXA (in words) [1] | wakefulness promotion (in words) ([2]; mouse models of narcolepsy) | cataplexy-like episodes (in words) ([2]; mouse models of narcolepsy / OXKO mice) | wake fragmentation (in words) ([2]; narcoleptic model mice / OXKO mice)
1 | Cc1nc2ccc(NC(=O)Nc3ccnc4cccnc34)cc2o1 [SB334867] | inhibited |  |  | 
2 | COc1ccc(-c2cccc(C(=O)N(C)C)c2)cc1S(=O)(=O)Nc1cccc(NCCNC(=O)c2ccccc2N(C)C)c1 [YNT-185] |  | promotes wakefulness | effectively suppressed cataplexy-like episodes; also recorded: ameliorates cataplexy-like episodes | did not appreciably ameliorate the wake fragmentation; also recorded: did not sufficiently suppress the active-phase fragmentation of wakefulness
